# Key:
# [1] = tested on: T-Rex 293 cell line SC3 cells having increased expression of androgen receptor protein due to exposure to doxycycline; experiment: Cellular growth inhibition, T-Rex 293 SC3 cells with doxycycline-induced androgen receptor (CellTiter-Glo 2.0, 72 hours); assay type: cell-based
# VCaP cell tumors = experiment: Castrate VCaP tumor xenograft study, tumor growth; assay type: in vivo; conditions: castrated CB17.SCID mice bearing VCaP tumors, oral gavage; same mg/kg dose and dosing frequency for Compound II-5 and Compound A, FIG. 8
# Description: Compound II-5 was evaluated for in vivo performance when administered to CB17.SCID mice bearing VCaP cell tumors.
# 5M VCaP cells were subcutaneously implanted into CB17.SCID mice in 50% Matrigel (Corning). Mice were castrated under anesthesia once tumor volumes reached 100 mm^3. Tumors were then allowed to reach an average of approximately 150 mm^3 before randomization into efficacy arms. Tumors were measured twice weekly for Tumor Growth Inhibition (TGI) calculation. For PK/PD analysis, tumors were allowed to reach an average of 400 mm^3, before dosing the mice with test compound by oral gavage (n=5) for seven days. Mice were sacrificed 24 hours following the final dose, and tumors were harvested for downstream analysis. Plasma samples were collected from all dosed mice 2 hours following the final dose to determine test compound exposure by LC-MS/MS. Test compounds used in the experiment were (i) Compound II-5 and (ii) a commercially available nonsteroidal antiandrogen medication that has been approved by the United States Food and Drug Administration for treatment of prostate cancer (hereinafter “Compound A”).
# [2] = biological target: T1, androgen receptor and BRD4 protein (Homo sapiens, UniProt O60885+P10275); experiment: Tumor TR-FRET trimer assay on tumors of the PK/PD Castrate VCaP model; assay type: in vivo, CB17.SCID mice; conditions: PK/PD Castrate VCaP Tumor Xenograft Model
# T1 construct: Tumors obtained from the Castrate VCaP Model were lysed; from tissue; host or cells: VCaP tumour xenografts grown in castrated CB17.SCID mice
# Description: 5M VCaP cells were subcutaneously implanted into CB17.SCID mice in 50% Matrigel (Corning). Mice were castrated under anesthesia once tumor volumes reached 100 mm^3. Tumors were then allowed to reach an average of approximately 150 mm^3 before randomization into efficacy arms. Tumors were measured twice weekly for Tumor Growth Inhibition (TGI) calculation. For PK/PD analysis, tumors were allowed to reach an average of 400 mm^3, before dosing the mice with test compound by oral gavage (n=5) for seven days. Mice were sacrificed 24 hours following the final dose, and tumors were harvested for downstream analysis. Plasma samples were collected from all dosed mice 2 hours following the final dose to determine test compound exposure by LC-MS/MS. […] the United States Food and Drug Administration for treatment of prostate cancer ([…]).
# Tumors obtained from the Castrate VCaP Model were lysed in Cell Signaling Technology lysis buffer supplemented with protease/phosphatase inhibitors and nuclease. Each tumor was lysed in 10 μL of lysis buffer per mg of tumor and placed in a TissueLyser for 4 minutes at 20 Hz. Each sample was spun down at 16000×g for 10 minutes, the supernatant was removed, and a BCA assay was run to quantify the total protein concentration in each sample. In a white opaque 384 well plate each sample was diluted in supplemented CST lysis buffer to 48 and 24 μg of protein in a total volume of 16 μL. 4 μL of a 1:1 mixture of anti-androgen receptor and anti-BRD4 antibodies with donor and acceptor fluorophores were mixed into each well containing tumor samples. The plate was spun down at 300×g for one minute, placed on a plate shaker at 400 RPM for 10 minutes, spun down at 300×g for one minute, then sealed with a plate seal and stored overnight. Approximately 16 hours after adding antibodies, the plate was read on an Envision plate reader. The ratiometric value of each well was calculated by dividing the acceptor signal by the donor signal and multiplying by 10,000.
# T1 sequence (P10275 whole entry, other chains not shown): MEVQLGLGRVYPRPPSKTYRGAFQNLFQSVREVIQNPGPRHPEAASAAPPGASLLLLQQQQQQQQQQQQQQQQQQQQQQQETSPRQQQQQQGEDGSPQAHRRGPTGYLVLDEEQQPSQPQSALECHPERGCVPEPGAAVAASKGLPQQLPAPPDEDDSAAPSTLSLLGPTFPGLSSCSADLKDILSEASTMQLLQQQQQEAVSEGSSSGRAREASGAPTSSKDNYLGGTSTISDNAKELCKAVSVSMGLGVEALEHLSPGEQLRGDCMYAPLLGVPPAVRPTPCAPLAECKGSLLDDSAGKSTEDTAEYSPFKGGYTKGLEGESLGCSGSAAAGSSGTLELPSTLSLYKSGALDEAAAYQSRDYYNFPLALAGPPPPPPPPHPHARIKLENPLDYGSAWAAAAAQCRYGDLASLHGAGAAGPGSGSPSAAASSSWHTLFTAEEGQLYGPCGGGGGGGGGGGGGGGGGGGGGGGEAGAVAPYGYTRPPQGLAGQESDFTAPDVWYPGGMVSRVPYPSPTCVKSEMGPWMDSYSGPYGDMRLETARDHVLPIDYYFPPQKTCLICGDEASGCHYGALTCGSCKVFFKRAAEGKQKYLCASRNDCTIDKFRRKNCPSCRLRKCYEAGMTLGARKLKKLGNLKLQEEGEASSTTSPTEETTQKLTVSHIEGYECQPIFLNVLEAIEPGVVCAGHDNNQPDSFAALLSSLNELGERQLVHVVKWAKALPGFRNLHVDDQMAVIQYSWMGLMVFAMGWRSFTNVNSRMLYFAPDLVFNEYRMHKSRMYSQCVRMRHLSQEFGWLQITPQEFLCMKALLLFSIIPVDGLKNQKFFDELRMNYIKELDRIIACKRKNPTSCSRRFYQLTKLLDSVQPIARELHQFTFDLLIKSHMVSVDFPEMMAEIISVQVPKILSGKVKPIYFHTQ
smiles,measurement,setting,value
"COc1cc(O[C@H]2C(C)(C)[C@H](NC(=O)c3cnc(N4CCC5(CC4)CC(Oc4ccc(C6=N[C@@H](Cc7ncco7)c7nnc(C)n7-c7sc(C)c(C)c76)cc4)C5)nc3)C2(C)C)ccc1C#N [II-5, N-[(1r,3r)-3-(4-cyano-3-methoxy-phenoxy)-2,2,4,4-tetramethyl-cyclobutyl]-2-[2-[4-[(9S)-4,5,13-trimethyl-9-(oxazol-2-ylmethyl)-3-thia-1,8,11,12-tetrazatricyclo[8.3.0.0^2,6]trideca-2 (6),4,7,10,12-pentaen-7-yl]phenoxy]-7-azaspiro[3.5]nonan-7-yl]pyrimidine-5-carboxamide]",Ratio of GI50's,"[1]; GI50 of the top compound in the pair divided by GI50 of the lower compound, T-Rex 293 SC3 cells with doxycycline-induced androgen receptor",1
same,GI50,"[1]; T-Rex 293 SC3 cells with 10 ng/ml doxycycline (increased androgen receptor expression), 72 hours, CellTiter-Glo 2.0",< 0.5 µM
same,tumor growth inhibition (tumor volume),VCaP cell tumors,more effective in reducing tumor growth in this experiment than Compound A
same,"ternary complex formation between compound, androgen receptor, and BRD4 protein in tumors","[2]; oral gavage for seven days, varying doses, FIG. 4",observed
same,"ternary complex formation between compound, androgen receptor, and BRD4 protein in tumors","[2]; Compound II-5 and Compound B at the same dose and dosing frequency, FIG. 20",observed

# — US12668599B2, “Heterobifunctional compounds and methods of treating disease” (Halda Therapeutics OpCo, Inc., priority 2023, dated 2026)
